Experimental data published in the Kinase Knowledgebase extract (Sharma et al. 2016).
Values after ≈ are worked out from the molar mass of the structure shown.

Assays:
EGFR (human) [1] = target: EGFR (human) (UniProt P00533); details: mda-mb-435
EGFR (human) [2] = target: EGFR (human) (UniProt P00533); details: sw 620
EGFR (human) [3] = target: EGFR (human) (UniProt P00533); details: sk-br-3
EGFR (human) [4] = target: EGFR (human) (UniProt P00533); details: a431
EGFR (human) [5] = target: EGFR (human) (UniProt P00533); details: 3t3
EGFR (human) [6] = target: EGFR (human) (UniProt P00533); details: her2/3t3

Sequence of EGFR (human) (P00533 whole entry, looked up): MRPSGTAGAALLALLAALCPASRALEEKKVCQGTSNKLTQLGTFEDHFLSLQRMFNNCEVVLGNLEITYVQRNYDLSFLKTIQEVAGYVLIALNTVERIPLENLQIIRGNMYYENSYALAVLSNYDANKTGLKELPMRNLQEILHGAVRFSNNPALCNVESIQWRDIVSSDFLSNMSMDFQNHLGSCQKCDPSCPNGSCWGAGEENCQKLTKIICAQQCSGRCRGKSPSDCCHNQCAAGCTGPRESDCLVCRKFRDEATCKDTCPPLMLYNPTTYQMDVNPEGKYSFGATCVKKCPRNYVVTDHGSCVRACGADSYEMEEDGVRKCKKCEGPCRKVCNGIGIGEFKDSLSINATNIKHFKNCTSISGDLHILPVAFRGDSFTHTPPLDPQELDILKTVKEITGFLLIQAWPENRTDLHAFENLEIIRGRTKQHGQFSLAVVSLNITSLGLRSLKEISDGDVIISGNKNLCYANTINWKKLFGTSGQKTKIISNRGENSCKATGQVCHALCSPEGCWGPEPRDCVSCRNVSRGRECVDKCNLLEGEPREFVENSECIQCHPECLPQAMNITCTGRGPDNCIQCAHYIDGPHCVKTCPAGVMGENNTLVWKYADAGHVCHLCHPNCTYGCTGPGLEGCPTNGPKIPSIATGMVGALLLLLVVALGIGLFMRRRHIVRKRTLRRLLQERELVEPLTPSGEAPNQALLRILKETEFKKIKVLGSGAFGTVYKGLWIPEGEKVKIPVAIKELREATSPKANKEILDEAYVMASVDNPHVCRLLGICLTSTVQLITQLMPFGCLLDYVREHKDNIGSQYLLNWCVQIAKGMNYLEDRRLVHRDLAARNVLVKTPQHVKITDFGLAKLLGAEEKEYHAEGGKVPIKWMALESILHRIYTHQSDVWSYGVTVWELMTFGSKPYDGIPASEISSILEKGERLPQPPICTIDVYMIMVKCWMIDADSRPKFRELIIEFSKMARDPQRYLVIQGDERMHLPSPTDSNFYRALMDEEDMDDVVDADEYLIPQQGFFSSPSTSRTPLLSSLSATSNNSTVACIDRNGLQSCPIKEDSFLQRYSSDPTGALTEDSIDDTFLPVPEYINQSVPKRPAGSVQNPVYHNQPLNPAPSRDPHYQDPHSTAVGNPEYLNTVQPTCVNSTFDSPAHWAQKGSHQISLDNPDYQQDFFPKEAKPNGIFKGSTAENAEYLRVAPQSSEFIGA

| SMILES | IC50 (EGFR (human) [1]) [µg/mL] | IC50 (EGFR (human) [2]) [µg/mL] | IC50 (EGFR (human) [3]) [µg/mL] | IC50 (EGFR (human) [4]) [µg/mL] | IC50 (EGFR (human) [5]) [µg/mL] | IC50 (EGFR (human) [6]) [µg/mL] |
| --- | --- | --- | --- | --- | --- | --- |
| COC[C@@H]1CCCN1CC#CC(=O)Nc1ccc2ncc(C#N)c(Nc3cccc(Br)c3)c2c1 | 0.3 (≈ 0.579 µM) | 0.1 (≈ 0.193 µM) |  |  |  |  |
| CN1CCC=C(C(=O)Nc2ccc3ncc(C#N)c(Nc4cccc(Br)c4)c3c2)C1 | 3.19 (≈ 6.91 µM) | > 5 | 1.5 (≈ 3.23 µM) | 0.369 (≈ 0.798 µM) |  |  |
| C=CCN(C)CC#CC(=O)Nc1ccc2ncc(C#N)c(Nc3cccc(Br)c3)c2c1 | 0.1 (≈ 0.211 µM) | 0.1 (≈ 0.211 µM) |  |  |  |  |
| COCCOCC#CC(=O)Nc1ccc2ncc(C#N)c(Nc3cccc(Br)c3)c2c1 | 3.5 (≈ 7.3 µM) | 0.4 (≈ 0.834 µM) | 0.8 (≈ 1.67 µM) | 0.9 (≈ 1.88 µM) |  |  |
| COC[C@@H]1CCCN1C/C=C/C(=O)Nc1cc2c(Nc3ccc(F)c(Cl)c3)c(C#N)cnc2cc1OC | 1.74 (≈ 3.32 µM) | 1.24 (≈ 2.37 µM) | 0.148 (≈ 0.282 µM) | 0.234 (≈ 0.447 µM) | 2.1 (≈ 4.01 µM) | 0.329 (≈ 0.628 µM) |
| COCCN(C)CC#CC(=O)Nc1ccc2ncc(C#N)c(Nc3cccc(Br)c3)c2c1 | 0.284 (≈ 0.577 µM) | 0.239 (≈ 0.485 µM) |  | 0.05 (≈ 0.102 µM) |  |  |
| COCCN(CC#CC(=O)Nc1ccc2ncc(C#N)c(Nc3cccc(Br)c3)c2c1)CCOC | 0.2 (≈ 0.373 µM) | 0.5 (≈ 0.932 µM) |  | 0.1 (≈ 0.186 µM) |  |  |
| COc1cc2ncc(C#N)c(Nc3ccc(F)c(Cl)c3)c2cc1NC(=O)/C=C/CN1CCC2(CC1)OCCO2 | 3.32 (≈ 6.01 µM) | 2.51 (≈ 4.55 µM) | 0.188 (≈ 0.341 µM) | 0.283 (≈ 0.513 µM) | 2.79 (≈ 5.05 µM) | 0.35 (≈ 0.634 µM) |
| COCCN(C)C/C=C\C(=O)Nc1cc2c(Nc3ccc(F)c(Cl)c3)c(C#N)cnc2cc1OC | 2.07 (≈ 4.16 µM) | 1.53 (≈ 3.07 µM) | 0.107 (≈ 0.215 µM) | 0.245 (≈ 0.492 µM) | 2.04 (≈ 4.1 µM) | 0.192 (≈ 0.386 µM) |
| COc1cc2ncc(C#N)c(Nc3ccc(F)c(Cl)c3)c2cc1NC(=O)/C=C\CN1CCCC(CO)C1 (stereo not given) | 1.83 (≈ 3.49 µM) | 1.73 (≈ 3.3 µM) |  | 0.232 (≈ 0.443 µM) | 2.87 (≈ 5.48 µM) | 0.375 (≈ 0.716 µM) |
| CCOc1c(Nc2ccc3ncc(C#N)c(Nc4cccc(Br)c4)c3c2)c(=O)c1=O | 27.6 (≈ 59.6 µM) | 18 (≈ 38.8 µM) | 1.74 (≈ 3.76 µM) | 4.91 (≈ 10.6 µM) |  |  |
